Data as given in patent publication US10450301B2, “Apoptosis signal-regulating kinase 1 inhibitors and methods of use thereof” (ENANTA PHARMACEUTICALS, INC., priority 2017, dated 2019).

molecular target: ASK1 (Homo sapiens (Human), UniProt Q99683); assay: HTRF KinEASE Assay (TR-FRET, STK3 peptide substrate), inhibition of ASK1; assay type: biochemical; conditions: 5 nM ASK1 kinase, 1 μM STK3 peptide substrate, 100 μM ATP, 3 hours; compound 0 to 10 μM
Protocol: Assay HTRF® KinEASE™ Assay
ASK1 was purchased from Thermofisher (Catalogue # PV4011), ATP was purchased from Sigma (Catalogue # A7699), HI-TRF® KinEASE™ Assay System was obtained from Cisbio (Bedford, Mass.). […] HTRF® KinEASE™-STK is a generic method for measuring serine/threonine kinase activities using a time-resolved fluorescence resonance energy transfer (TR-FRET) immunoassay. […] 100 Um ATP is added to start kinase reaction and incubated for 3 hours. The STK3-antibody labeled with Eu^3+-Cryptate and 125 Nm streptavidin-XL665 are mixed in a single addition with stop reagents provided by the Cisbio kit used to stop the kinase reaction. […] The resulting TR-FRET is proportional to the phosphorylation level. Staurosporine was used as the positive control. IC50 was determined by Xlfit 5.3.
By using above method, the inhibition of ASK1 was evaluated for the compounds of Formula (I).

Chain of ASK1 (Q99683 whole entry): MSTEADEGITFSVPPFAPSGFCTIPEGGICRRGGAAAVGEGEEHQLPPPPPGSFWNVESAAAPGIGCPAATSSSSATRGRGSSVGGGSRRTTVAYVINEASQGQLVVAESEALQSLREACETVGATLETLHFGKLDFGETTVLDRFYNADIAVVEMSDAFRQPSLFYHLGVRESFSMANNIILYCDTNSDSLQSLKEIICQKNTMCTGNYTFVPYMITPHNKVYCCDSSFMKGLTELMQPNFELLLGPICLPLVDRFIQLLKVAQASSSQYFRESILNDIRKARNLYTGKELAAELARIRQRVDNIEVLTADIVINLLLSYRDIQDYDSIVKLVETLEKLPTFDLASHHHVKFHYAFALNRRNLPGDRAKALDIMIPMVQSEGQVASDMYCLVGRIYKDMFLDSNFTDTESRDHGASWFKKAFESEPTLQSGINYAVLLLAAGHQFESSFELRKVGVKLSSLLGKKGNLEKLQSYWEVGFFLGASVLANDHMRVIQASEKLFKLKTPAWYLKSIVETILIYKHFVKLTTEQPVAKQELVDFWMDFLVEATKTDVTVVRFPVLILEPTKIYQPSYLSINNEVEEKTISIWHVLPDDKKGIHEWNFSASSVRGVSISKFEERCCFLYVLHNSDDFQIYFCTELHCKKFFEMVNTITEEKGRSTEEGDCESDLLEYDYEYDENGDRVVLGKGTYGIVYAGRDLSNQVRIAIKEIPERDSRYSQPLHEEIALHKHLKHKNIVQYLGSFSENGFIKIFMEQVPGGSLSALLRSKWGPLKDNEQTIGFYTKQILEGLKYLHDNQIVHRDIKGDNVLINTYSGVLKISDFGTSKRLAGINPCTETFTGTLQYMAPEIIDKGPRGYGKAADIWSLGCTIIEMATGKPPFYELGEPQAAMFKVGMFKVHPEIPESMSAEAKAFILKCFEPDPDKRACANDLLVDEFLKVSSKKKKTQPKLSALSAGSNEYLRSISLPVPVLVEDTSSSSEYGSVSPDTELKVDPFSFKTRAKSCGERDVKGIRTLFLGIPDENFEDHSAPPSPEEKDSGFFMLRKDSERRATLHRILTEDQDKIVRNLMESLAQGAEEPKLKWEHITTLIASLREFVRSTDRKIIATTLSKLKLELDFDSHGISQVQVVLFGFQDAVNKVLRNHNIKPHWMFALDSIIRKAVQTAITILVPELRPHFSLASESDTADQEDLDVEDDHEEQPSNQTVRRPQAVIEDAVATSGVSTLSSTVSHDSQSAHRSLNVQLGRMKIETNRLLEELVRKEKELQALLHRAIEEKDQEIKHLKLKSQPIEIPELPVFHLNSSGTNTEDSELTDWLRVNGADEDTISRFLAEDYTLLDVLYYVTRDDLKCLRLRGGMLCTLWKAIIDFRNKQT

Row | Molecule | IC50 [nM]
1 | 2-(N,N-dimethylsulfamoyl)-N-(6-(4-isopropyl-4H-1,2,4-triazol-3-yl)pyridin-2-yl)isoindoline-5-carboxamide [Example 10] | > 1000
2 | CC(C)N1Cc2ccc(C(=O)Nc3cccc(-c4nnnn4C(C)C)n3)cc2C1=O [Example 1, 2-isopropyl-N-(6-(1-isopropyl-1H-tetrazol-5-yl)pyridin-2-yl)-3-oxoisoindoline-5-carboxamide] | 100 to 1000
3 | CC(C)n1nnnc1-c1cccc(NC(=O)c2ccc3c(c2)CN(C(=O)OCc2ccccc2)C3)n1 [Example 2] | > 1000
4 | CC(C)n1cnnc1-c1cccc(NC(=O)c2ccc3c(c2)CN(C(=O)OCc2ccccc2)C3)n1 [Example 3, benzyl 5-((6-(4-isopropyl-4H-1,2,4-triazol-3-yl)pyridin-2-yl)carbamoyl)isoindoline-2-carboxylate] | 10 to 100
5 | CC(C)n1cnnc1-c1cccc(NC(=O)c2ccc3c(c2)CN(S(=O)(=O)CCC(F)(F)F)C3)n1 [Example 4, N-(6-(4-isopropyl-4H-1,2,4-triazol-3-yl)pyridin-2-yl)-2-((3,3,3-trifluoropropyl)sulfonyl)isoindoline-5-carboxamide] | 100 to 1000
6 | CCN(C)C(=O)N1Cc2ccc(C(=O)Nc3cccc(-c4nncn4C(C)C)n3)cc2C1 [Example 5, N2-ethyl-N5-(6-(4-isopropyl-4H-1,2,4-triazol-3-yl)pyridin-2-yl)-N2-methylisoindoline-2,5-dicarboxamide] | 100 to 1000
7 | COCCS(=O)(=O)N1Cc2ccc(C(=O)Nc3cccc(-c4nncn4C(C)C)n3)cc2C1 [Example 6] | 100 to 1000
8 | CCOC(=O)N1Cc2ccc(C(=O)Nc3cccc(-c4nncn4C(C)C)n3)cc2C1 [Example 7, ethyl 5-((6-(4-isopropyl-4H-1,2,4-triazol-3-yl)pyridin-2-yl)carbamoyl)isoindoline-2-carboxylate] | 100 to 1000
9 | CC(C)n1nnnc1-c1cccc(NC(=O)c2ccc3c(c2)CNC3)n1 [Example 8] | > 1000
10 | CC(C)n1cnnc1-c1cccc(NC(=O)c2ccc3c(c2)CNC3)n1 [Example 9, N-(6-(4-isopropyl-4H-1,2,4-triazol-3-yl)pyridin-2-yl)isoindoline-5-carboxamide] | > 1000
11 | CC(C)n1nnnc1-c1cccc(NC(=O)c2ccc3c(c2)CN(C(=O)N2CCCC2)C3)n1 [Example 11] | 100 to 1000
12 | CC(C)n1nnnc1-c1cccc(NC(=O)c2ccc3c(c2)CN(C(=O)N(C)C)C3)n1 [Example 12] | 100 to 1000
13 | CCN(C)C(=O)N1Cc2ccc(C(=O)Nc3cccc(-c4nnnn4C(C)C)n3)cc2C1 [Example 13] | > 1000
14 | CC(C)n1nnnc1-c1cccc(NC(=O)c2ccc3c(c2)CN(S(=O)(=O)CCC(F)(F)F)C3)n1 [Example 14] | > 1000
15 | COCCS(=O)(=O)N1Cc2ccc(C(=O)Nc3cccc(-c4nnnn4C(C)C)n3)cc2C1 [Example 15] | > 1000
16 | CCOC(=O)N1Cc2ccc(C(=O)Nc3cccc(-c4nnnn4C(C)C)n3)cc2C1 [Example 16] | > 1000
17 | CC(C)n1cnnc1-c1cccc(NC(=O)c2ccc3c(c2)CN(C(=O)N2CCCC2)C3)n1 [Example 17] | 10 to 100
18 | CC(C)N1Cc2cnc(C(=O)Nc3cccc(-c4nnnn4[C@H](C)CO)n3)cc2C1=O [Example 18, (R)—N-(6-(1-(1-hydroxypropan-2-yl)-1H-tetrazol-5-yl)pyridin-2-yl)-2-isopropyl-1-oxo-2,3-dihydro-1H-pyrrolo[3,4-c]pyridine-6-carboxamide] | 10 to 100
19 | CC(C)N1Cc2cnc(C(=O)Nc3cccc(-c4nncn4C(C)C)n3)cc2C1=O [Example 19, 2-isopropyl-N-(6-(4-isopropyl-4H-1,2,4-triazol-3-yl)pyridin-2-yl)-1-oxo-2,3-dihydro-1H-pyrrolo[3,4-c]pyridine-6-carboxamide] | 10 to 100
20 | CC(C)n1cnnc1-c1cccc(NC(=O)c2cc3c(cc2F)CCN(S(=O)(=O)NC2CC2)C3)n1 [Example 20, 2-(N-cyclopropylsulfamoyl)-6-fluoro-N-(6-(4-isopropyl-4H-1,2,4-triazol-3-yl)pyridin-2-yl)-1,2,3,4-tetrahydroisoquinoline-7-carboxamide] | 1 to 10
